Assay results from patent publication US10604512B2, “3-(1H-indol-2-yl)-1H-indazoles and therapeutic uses thereof” (Samumed, LLC, priority 2015, dated 2020).

Experiments:
Format in all cases: cell-based
SW480 colon cancer cells = test: Cell viability assay (CellTiter-Blue) in SW480 colon cancer cells; conditions: Homo sapiens, 96 h, four days, CellTiter-Blue
Method in brief: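 Four-day viability readout in SW480 cells: compound at 0.0045–10 μM (1:3 series), DMSO controls in eight replicates, CellTiter-Blue fluorescence after ~3 h. Values are regression-derived EC50s, or percent inhibition at 10 μM when EC50 exceeds 10 μM.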

IL-6 = test: Inhibition of IL-6 in LPS-stimulated THP-1 human monocyte cells (HTRF); conditions: IL-6 inhibition, LPS-stimulated THP-1 cells, HTRF
Method in brief: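 THP-1 cells serum-reduced (1% FBS, 24 h), then 5000 cells/well preincubated 2 h with compound (10-point 1:3 series from 10 μM, 0.1% DMSO) before 500 ng/mL LPS for 22 h at 37 °C. Secreted IL-6 quantified by HTRF 665/620 ratio; DMSO-normalised duplicates fitted to four-parameter EC50; above 10 μM, % inhibition at 10 μM given.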

[1] = test system: Wnt activity (Sp5-Luc reporter, TCF/LEF binding sites) in SW480 colon carcinoma cells; test: Screening assay for Wnt activity: Sp5-Luc reporter gene assay in stably transduced SW480 colon carcinoma cells; conditions: Homo sapiens, overnight incubation, 10-point curve from 10 μM
Method in brief: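 SW480 cells stably transduced with a luciferase reporter driven by an Sp5 promoter of eight TCF/LEF sites were plated at 4,000 cells/well in 1% FBS medium. They were exposed overnight at 37° C to a 10-point 1:3 dilution series from 10 μM (0.1% DMSO). Luminescence was normalized to DMSO for four-parameter EC50, or percent inhibition at 10 μM.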

[2] = test system: Primary human fibroblasts derived from IPF patients (LL29 cells) treated with TGF-β1; test: Inhibition of the fibrotic process: αSMA staining in TGF-β1-treated primary human fibroblasts from IPF patients (LL29 cells); conditions: Fibroblast, 96 h, % αSMA-positive LL29 cells, TGF-β1 20 ng/mL, 4 days
Method in brief: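 LL29 IPF-patient fibroblasts in 1% FBS stimulated with TGF-β1 (20 ng/mL) and compound (10 μM–1.87 nM, 0.1% DMSO) for 4 days at 37 °C. SYTOX-positive cells excluded; % αSMA-positive cells imaged, normalized to TGF-β1/DMSO wells; EC50 by nonlinear regression, else % inhibition at 10 μM.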

EC50 (SW480 colon cancer cells) [nM] | EC50 (IL-6) [nM] | EC50 [1] [nM] | SMILES | EC50 [2] [nM]
111 | 180 | 40 | Nc1cncc(-c2ccc3[nH]nc(-c4cc5c(-c6ccsc6)cccc5[nH]4)c3c2)c1 [Compound 283, 5-(3-(4-(Thiophen-3-yl)-1H-indol-2-yl)-1H-indazol-5-yl)pyridin-3-amine] | 809
4800 | 1000 | 1960 | CCCCC(=O)Nc1cncc(-c2ccc3[nH]nc(-c4cc5c(-c6ccccc6F)cccc5[nH]4)c3c2)c1 [Compound 75, N-(5-(3-(4-(2-Fluorophenyl)-1H-indol-2-yl)-1H-indazol-5-yl)pyridin-3-yl) pentanamide] | 1980
4200 | 2380 | 2880 | Fc1ccccc1-c1cccc2[nH]c(-c3n[nH]c4ccc(-c5ccccn5)cc34)cc12 [Compound 84, 3-(4-(2-Fluorophenyl)-1H-indol-2-yl)-5-(pyridin-2-yl)-1H-indazole] | 6740
1250 | 74 | 468 | NC1CN(c2cncc(-c3ccc4[nH]nc(-c5cc6c(N7CCCCC7)cccc6[nH]5)c4c3)n2)C1 [Compound 634, 1-(6-(3-(4-(piperidin-1-yl)-1H-indol-2-yl)-1H-indazol-5-yl)pyrazin-2-yl)azetidin-3-amine] | 794
2130 | 1300 | 570 | O=C(CC1CCCCC1)Nc1cncc(-c2ccc3[nH]nc(-c4cc5c(-c6ccsc6)cccc5[nH]4)c3c2)c1 [Compound 707, 2-Cyclohexyl-N-(5-(3-(4-(thiophen-3-yl)-1H-indol-2-yl)-1H-indazol-5-yl)pyridin-3-yl)acetamide] | > 10000
1370 | 1710 | 680 | CN(C)CCOc1cncc(-c2ccc3[nH]nc(-c4cc5c(-c6ccoc6)cccc5[nH]4)c3c2)c1 [Compound 719, 2-((5-(3-(4-(Furan-3-yl)-1H-indol-2-yl)-1H-indazol-5-yl)pyridin-3-yl)oxy)-N,N-dimethylethan-1-amine] | 1950
75 | 9 | 21 | CN(C)CCNc1cc(F)cc(-c2cccc3[nH]c(-c4n[nH]c5ccc(-c6cncc(NC(=O)C7CC7)c6)cc45)cc23)c1 [Compound 468, N-(5-(3-(4-(3-((2-(Dimethylamino)ethyl)amino)-5-fluorophenyl)-1H-indol-2-yl)-1H-indazol-5-yl)pyridin-3-yl)cyclopropanecarboxamide] | 174
2600 | 35 | 190 | O=C(Nc1cncc(-c2ccc3[nH]nc(-c4cc5c(-c6ccc(F)cc6)cccc5[nH]4)c3c2)c1)C1CCC1 [Compound 49, N-(5-(3-(4-(4-Fluorophenyl)-1H-indol-2-yl)-1H-indazol-5-yl)pyridin-3-yl) cyclobutanecarboxamide] | 778
1800 | 245 | 565 | COc1cncc(-c2ccc3[nH]nc(-c4cc5c(-c6ccsc6)cccc5[nH]4)c3c2)c1 [Compound 704, 5-(5-Methoxypyridin-3-yl)-3-(4-(thiophen-3-yl)-1H-indol-2-yl)-1H-indazole] | 31
597 | 174 | 110 | O=C(Nc1cncc(-c2ccc3[nH]nc(-c4cc5c(-c6cccnc6)cccc5[nH]4)c3c2)c1)C1CCC1 [Compound 105, N-(5-(3-(4-(Pyridin-3-yl)-1H-indol-2-yl)-1H-indazol-5-yl)pyridin-3-yl) cyclobutanecarboxamide] | 144
287 | 27 | 195 | CN(C)CCNc1cc(F)cc(-c2cccc3[nH]c(-c4n[nH]c5ccc(-c6cncc(NC(=O)C7CCC7)c6)cc45)cc23)c1 [Compound 469, N-(5-(3-(4-(3-((2-(Dimethylamino)ethyl)amino)-5-fluorophenyl)-1H-indol-2-yl)-1H-indazol-5-yl)pyridin-3-yl)cyclobutanecarboxamide] | 189
4090 | 1220 | 495 | Fc1cccc(-c2cccc3[nH]c(-c4n[nH]c5ccc(-c6cncc(CN7CCC(F)(F)C7)c6)cc45)cc23)c1 [Compound 26, 5-(5-((3,3-diFluoropyrrolidin-1-yl)methyl)pyridin-3-yl)-3-(4-(3-fluorophenyl)-1H-indol-2-yl)-1H-indazole] | 815
442 | 593 | 185 | c1cc(-c2ccoc2)c2cc(-c3n[nH]c4ccc(-c5cncc(CN6CCCCC6)c5)cc34)[nH]c2c1 [Compound 323, 3-(4-(Furan-3-yl)-1H-indol-2-yl)-5-(5-(piperidin-1-ylmethyl)pyridin-3-yl)-1H-indazole] | 728
3180 | 2060 | 650 | CS(=O)(=O)NCc1cc(F)cc(-c2cccc3[nH]c(-c4n[nH]c5ccc(-c6cncc(NC(=O)c7ccccc7)c6)cc45)cc23)c1 [Compound 487, N-(5-(3-(4-(3-Fluoro-5-(methylsulfonamidomethyl)phenyl)-1H-indol-2-yl)-1H-indazol-5-yl)pyridin-3-yl)benzamide] | 313
1820 | 15 | 664 | CCCCC(=O)Nc1cncc(-c2ccc3[nH]nc(-c4cc5c(N6CCN(C)CC6)cccc5[nH]4)c3c2)c1 [Compound 243, N-(5-(3-(4-(4-Methylpiperazin-1-yl)-1H-indol-2-yl)-1H-indazol-5-yl)pyridin-3-yl)pentanamide] | 1270
2170 | 3110 | 1160 | Fc1ccccc1-c1cccc2[nH]c(-c3n[nH]c4ccc(-c5cncc(CN6CCCCC6)c5)cc34)cc12 [Compound 71, 3-(4-(2-Fluorophenyl)-1H-indol-2-yl)-5-(5-(piperidin-1-ylmethyl)pyridin-3-yl)-1H-indazole] | 2550
918 | 164 | 185 | CC(C)CC(=O)Nc1cncc(-c2ccc3[nH]nc(-c4cc5c(-c6ccccn6)cccc5[nH]4)c3c2)c1 [Compound 142, 3-Methyl-N-(5-(3-(4-(pyridin-2-yl)-1H-indol-2-yl)-1H-indazol-5-yl)pyridin-3-yl)butanamide] | 312
470 | 475 | 182 | FC1(F)CCN(Cc2cncc(-c3ccc4[nH]nc(-c5cc6c(-c7ccoc7)cccc6[nH]5)c4c3)c2)C1 [Compound 334, 5-(5-((3,3-Difluoropyrrolidin-1-yl)methyl)pyridin-3-yl)-3-(4-(furan-3-yl)-1H-indol-2-yl)-1H-indazole] | 154
677 | 169 | 80 | CS(=O)(=O)NCc1cc(F)cc(-c2cccc3[nH]c(-c4n[nH]c5ccc(-c6cncc(N)c6)cc45)cc23)c1 [Compound 479, N-(3-(2-(5-(5-Aminopyridin-3-yl)-1H-indazol-3-yl)-1H-indol-4-yl)-5-fluorobenzyl)methanesulfonamide] | 134
3510 | 31 | 791 | c1cc(-c2ccoc2)c2cc(-c3n[nH]c4ccc(-c5cnccn5)cc34)[nH]c2c1 [Compound 724, 3-(4-(Furan-3-yl)-1H-indol-2-yl)-5-(pyrazin-2-yl)-1H-indazole] | 96
3720 | 1290 | 811 | O=C(Cc1ccccc1)Nc1cncc(-c2ccc3[nH]nc(-c4cc5c(N6CCCCC6)cccc5[nH]4)c3c2)c1 [Compound 178, 2-Phenyl-N-(5-(3-(4-(piperidin-1-yl)-1H-indol-2-yl)-1H-indazol-5-yl)pyridin-3-yl)acetamide] | 989
677 | 253 | 352 | CC(C)Nc1cncc(-c2ccc3[nH]nc(-c4cc5c(N6CCN(C)CC6)cccc5[nH]4)c3c2)c1 [Compound 236, N-Isopropyl-5-(3-(4-(4-methylpiperazin-1-yl)-1H-indol-2-yl)-1H-indazol-5-yl)pyridin-3-amine] | 761
1490 | 5450 | 540 | CS(=O)(=O)NCc1cc(F)cc(-c2cccc3[nH]c(-c4n[nH]c5ccc(-c6cncc(CN7CCCCC7)c6)cc45)cc23)c1 [Compound 491, N-(3-Fluoro-5-(2-(5-(5-(piperidin-1-ylmethyl)pyridin-3-yl)-1H-indazol-3-yl)-1H-indol-4-yl)benzyl)methanesulfonamide] | 833
345 | 98 | 464 | CCNCc1cncc(-c2ccc3[nH]nc(-c4cc5ncccc5[nH]4)c3c2)c1 [Compound 510, N-((5-(3-(1H-pyrrolo[3,2-b]pyridin-2-yl)-1H-indazol-5-yl)pyridin-3-yl)methyl)ethanamine] | 1590
